# Data taken from patent US9233079B2, “Method for producing nanocapsules in the absence of an organic solvent, and nanocapsules produced thereby” (UNIVERSITE CLAUDE BERNARD LYON I, priority 2008, dated 2016).
# Assay: Saturation concentration of chlorhexidine base in water
# Type: physicochemical
# Method: The size and the zeta potential of the nanocapsules, determined using a Zetamaster® S, are 450 nm and −40 mV, respectively. The concentration of free (i.e. nonencapsulated) chiorhexidine in the nanocapsule suspension was determined after filtration of the colloidal suspension through a 0.22 μm filter. After dilution in distilled water, the concentration of chiorhexidine base free in the filtrate, determined by high performance liquid chromatography (HPLC) (H. Lboutounne, V. Faivre, F. Faison, and F. Pirot, Skin Pharmacology and Applied Skin Physiology 17: 176-182 (2004); H. Lboutounne, J.-F. Chaulet, C. Ploton, F. Faison, and F. Pirot Journal of Controlled Release 82: 319-334 (2002); D. T. T. Nhung, A.-M. Freydiere, H. Constant, F. Faison, and F. Pirot International Journal of Pharmaceutics 334:166-172 (2007)), was in the region of 0.008%, i.e. the saturation concentration of chiorhexidine base in water. The concentration of encapsulated chlorhexidine base was determined by virtue of the difference between the total concentration of chlorhexidine base in the suspension and the concentration of free chlorhexidine. The total concentration of encapsulated chiorhexidine base was determined after dilution of an aliquot of colloidal suspension in a mixture of acetonitrile/sodium acetate (30 mM) (50/50, v/v). […]
compound,measurement,value
"N=C(NCCCCCCNC(=N)NC(=N)Nc1ccc(Cl)cc1)NC(=N)Nc1ccc(Cl)cc1 [chlorhexidine base, Chlorhexidine base]",saturation concentration of chlorhexidine base in water,~0.008%
